How the values were obtained:
Assay in all cases: split-luciferase competition binding
[1] = molecular target: PRKX (human) (UniProt P51817); settings: compound 10.0 µM
[2] = molecular target: RPS6KA5 KD1 (human) (UniProt O75582); settings: compound 10.0 µM
[3] = molecular target: RPS6KA2 KD1 (human) (UniProt Q15349); settings: compound 10.0 µM
[4] = molecular target: RPS6KA1 KD1 (human) (UniProt Q15418); settings: compound 10.0 µM
[5] = molecular target: PRKCD (human) (UniProt Q05655); settings: compound 10.0 µM
[6] = molecular target: PKN1 (human) (UniProt Q16512); settings: compound 10.0 µM
[7] = molecular target: RPS6KA6 KD1 (human) (UniProt Q9UK32); settings: compound 10.0 µM
Chain of RPS6KA6 KD1 (human) (Q9UK32 whole entry, looked up): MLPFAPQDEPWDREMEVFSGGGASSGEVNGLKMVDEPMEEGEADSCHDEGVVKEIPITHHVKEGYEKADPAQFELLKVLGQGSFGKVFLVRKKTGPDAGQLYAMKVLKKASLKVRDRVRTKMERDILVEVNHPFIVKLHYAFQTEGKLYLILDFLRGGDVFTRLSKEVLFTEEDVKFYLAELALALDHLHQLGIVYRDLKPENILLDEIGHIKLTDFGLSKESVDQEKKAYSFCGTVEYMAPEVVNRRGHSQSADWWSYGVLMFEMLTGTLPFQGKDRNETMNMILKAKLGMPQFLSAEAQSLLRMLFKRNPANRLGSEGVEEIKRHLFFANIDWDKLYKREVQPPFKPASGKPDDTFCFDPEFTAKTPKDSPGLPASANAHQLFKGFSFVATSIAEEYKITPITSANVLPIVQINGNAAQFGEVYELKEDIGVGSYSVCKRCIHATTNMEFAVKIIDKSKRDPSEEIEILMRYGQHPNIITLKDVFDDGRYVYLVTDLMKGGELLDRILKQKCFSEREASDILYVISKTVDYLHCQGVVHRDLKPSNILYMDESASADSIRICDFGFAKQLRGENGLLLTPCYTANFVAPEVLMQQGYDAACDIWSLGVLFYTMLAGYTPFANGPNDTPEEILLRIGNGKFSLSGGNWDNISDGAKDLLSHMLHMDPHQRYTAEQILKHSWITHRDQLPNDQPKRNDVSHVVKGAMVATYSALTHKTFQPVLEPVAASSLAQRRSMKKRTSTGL

[8] = molecular target: PRKCQ (human) (UniProt Q04759); settings: compound 10.0 µM
[9] = molecular target: AURKB (human) (UniProt Q96GD4); settings: compound 10.0 µM
[10] = molecular target: RPS6KA3 KD1 (human) (UniProt P51812); settings: compound 10.0 µM
[11] = molecular target: SGK3 (human) (UniProt Q96BR1); settings: compound 10.0 µM
[12] = molecular target: PRKCE (human) (UniProt Q02156); settings: compound 10.0 µM
[13] = molecular target: AKT2 (human) (UniProt P31751); settings: compound 10.0 µM
[14] = molecular target: PRKCH (human) (UniProt P24723); settings: compound 10.0 µM
Chain of PRKCH (human) (P24723 whole entry, looked up): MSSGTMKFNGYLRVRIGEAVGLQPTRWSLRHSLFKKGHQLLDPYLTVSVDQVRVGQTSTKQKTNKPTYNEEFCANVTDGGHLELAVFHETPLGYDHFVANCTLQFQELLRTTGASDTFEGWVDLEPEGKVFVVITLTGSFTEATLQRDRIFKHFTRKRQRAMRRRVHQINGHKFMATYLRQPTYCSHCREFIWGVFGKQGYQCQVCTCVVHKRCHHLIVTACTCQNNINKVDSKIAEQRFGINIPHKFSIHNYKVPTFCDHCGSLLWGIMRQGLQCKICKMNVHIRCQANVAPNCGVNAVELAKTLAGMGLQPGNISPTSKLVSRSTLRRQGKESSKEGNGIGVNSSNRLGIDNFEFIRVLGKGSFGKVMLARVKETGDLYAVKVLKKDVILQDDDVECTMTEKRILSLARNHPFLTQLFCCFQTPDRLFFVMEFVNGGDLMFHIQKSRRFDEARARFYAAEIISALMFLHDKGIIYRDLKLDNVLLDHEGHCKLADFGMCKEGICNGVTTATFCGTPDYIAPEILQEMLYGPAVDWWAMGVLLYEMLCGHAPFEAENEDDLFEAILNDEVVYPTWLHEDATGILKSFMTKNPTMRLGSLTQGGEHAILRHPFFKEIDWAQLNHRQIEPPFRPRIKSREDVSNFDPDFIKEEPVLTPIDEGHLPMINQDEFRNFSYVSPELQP

[15] = molecular target: AURKA (human) (UniProt O14965); settings: compound 10.0 µM
Chain of AURKA (human) (O14965 whole entry, looked up): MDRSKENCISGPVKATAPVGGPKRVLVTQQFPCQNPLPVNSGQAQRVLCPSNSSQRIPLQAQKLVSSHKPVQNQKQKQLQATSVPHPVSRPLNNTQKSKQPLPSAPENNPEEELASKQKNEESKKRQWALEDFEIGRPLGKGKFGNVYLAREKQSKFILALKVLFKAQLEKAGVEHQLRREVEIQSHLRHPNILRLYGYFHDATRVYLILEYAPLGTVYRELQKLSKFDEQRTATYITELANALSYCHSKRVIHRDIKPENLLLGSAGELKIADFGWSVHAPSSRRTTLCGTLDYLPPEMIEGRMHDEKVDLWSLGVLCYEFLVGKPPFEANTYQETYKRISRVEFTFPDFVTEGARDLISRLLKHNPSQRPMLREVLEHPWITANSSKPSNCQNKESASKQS

[16] = system: PRKACA (mouse); settings: compound 10.0 µM; accession and sequence are those of the human protein
[17] = molecular target: AKT1 (human) (UniProt P31749); settings: compound 10.0 µM
Chain of AKT1 (human) (P31749 whole entry, looked up): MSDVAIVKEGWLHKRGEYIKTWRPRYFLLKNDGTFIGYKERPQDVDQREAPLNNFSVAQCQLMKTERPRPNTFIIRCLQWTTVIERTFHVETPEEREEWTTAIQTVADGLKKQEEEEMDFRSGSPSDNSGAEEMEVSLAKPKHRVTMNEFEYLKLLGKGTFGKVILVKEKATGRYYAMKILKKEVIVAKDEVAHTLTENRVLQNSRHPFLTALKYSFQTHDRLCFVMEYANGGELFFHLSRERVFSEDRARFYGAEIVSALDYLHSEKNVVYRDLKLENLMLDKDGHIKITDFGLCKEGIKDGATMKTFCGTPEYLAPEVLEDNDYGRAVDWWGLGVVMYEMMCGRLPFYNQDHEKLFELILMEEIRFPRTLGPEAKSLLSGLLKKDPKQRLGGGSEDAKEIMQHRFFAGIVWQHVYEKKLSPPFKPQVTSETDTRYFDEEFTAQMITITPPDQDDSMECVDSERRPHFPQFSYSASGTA

[18] = molecular target: PRKACB (human) (UniProt P22694); settings: compound 10.0 µM
[19] = molecular target: STK32B (human) (UniProt Q9NY57); settings: compound 10.0 µM
Chain of STK32B (human) (Q9NY57 whole entry, looked up): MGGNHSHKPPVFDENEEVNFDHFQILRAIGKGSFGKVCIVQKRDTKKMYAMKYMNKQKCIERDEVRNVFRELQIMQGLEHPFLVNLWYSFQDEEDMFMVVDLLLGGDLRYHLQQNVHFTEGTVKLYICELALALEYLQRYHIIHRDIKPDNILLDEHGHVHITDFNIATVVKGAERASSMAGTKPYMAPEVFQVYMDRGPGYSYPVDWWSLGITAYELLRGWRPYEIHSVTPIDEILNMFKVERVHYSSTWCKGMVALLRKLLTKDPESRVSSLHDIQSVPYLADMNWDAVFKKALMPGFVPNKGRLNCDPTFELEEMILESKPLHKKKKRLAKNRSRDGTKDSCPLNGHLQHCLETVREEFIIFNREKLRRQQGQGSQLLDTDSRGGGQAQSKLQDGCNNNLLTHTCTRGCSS

[20] = molecular target: SGK2 (human) (UniProt Q9HBY8); settings: compound 10.0 µM
[21] = molecular target: PRKCG (human) (UniProt P05129); settings: compound 10.0 µM
[22] = molecular target: AKT3 (human) (UniProt Q9Y243); settings: compound 10.0 µM
[23] = molecular target: RPS6KA4 KD1 (human) (UniProt O75676); settings: compound 10.0 µM
[24] = molecular target: PRKCI (human) (UniProt P41743); settings: compound 10.0 µM
[25] = molecular target: AURKC (human) (UniProt Q9UQB9); settings: compound 10.0 µM
Chain of AURKC (human) (Q9UQB9 whole entry, looked up): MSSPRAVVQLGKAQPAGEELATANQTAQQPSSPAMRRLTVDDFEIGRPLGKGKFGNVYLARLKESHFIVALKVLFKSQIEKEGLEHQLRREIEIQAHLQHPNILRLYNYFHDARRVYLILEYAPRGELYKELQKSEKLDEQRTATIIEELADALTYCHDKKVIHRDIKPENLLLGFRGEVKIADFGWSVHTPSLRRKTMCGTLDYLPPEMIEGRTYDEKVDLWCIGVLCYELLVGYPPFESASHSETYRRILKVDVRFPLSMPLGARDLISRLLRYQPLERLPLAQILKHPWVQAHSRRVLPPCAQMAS

[26] = molecular target: DMPK (human) (UniProt Q09013); settings: compound 10.0 µM
Chain of DMPK (human) (Q09013 whole entry, looked up): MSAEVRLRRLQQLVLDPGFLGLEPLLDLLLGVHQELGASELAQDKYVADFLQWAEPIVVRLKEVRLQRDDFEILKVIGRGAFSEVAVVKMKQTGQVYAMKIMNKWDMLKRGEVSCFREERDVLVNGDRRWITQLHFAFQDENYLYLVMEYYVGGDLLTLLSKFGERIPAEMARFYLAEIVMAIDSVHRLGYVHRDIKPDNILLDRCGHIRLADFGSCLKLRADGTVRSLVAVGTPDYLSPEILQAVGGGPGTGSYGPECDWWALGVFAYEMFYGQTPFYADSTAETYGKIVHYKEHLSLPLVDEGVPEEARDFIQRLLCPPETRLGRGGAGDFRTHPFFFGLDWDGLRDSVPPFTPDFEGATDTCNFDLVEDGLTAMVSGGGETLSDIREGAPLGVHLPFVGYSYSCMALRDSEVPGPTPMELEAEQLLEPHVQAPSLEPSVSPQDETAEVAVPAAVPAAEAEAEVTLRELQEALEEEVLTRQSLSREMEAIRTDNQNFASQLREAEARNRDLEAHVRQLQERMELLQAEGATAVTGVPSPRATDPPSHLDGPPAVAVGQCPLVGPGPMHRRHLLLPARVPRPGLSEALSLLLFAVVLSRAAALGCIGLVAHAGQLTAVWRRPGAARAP

[27] = molecular target: PDPK1 (human) (UniProt O15530); settings: compound 10.0 µM
Chain of PDPK1 (human) (O15530 whole entry, looked up): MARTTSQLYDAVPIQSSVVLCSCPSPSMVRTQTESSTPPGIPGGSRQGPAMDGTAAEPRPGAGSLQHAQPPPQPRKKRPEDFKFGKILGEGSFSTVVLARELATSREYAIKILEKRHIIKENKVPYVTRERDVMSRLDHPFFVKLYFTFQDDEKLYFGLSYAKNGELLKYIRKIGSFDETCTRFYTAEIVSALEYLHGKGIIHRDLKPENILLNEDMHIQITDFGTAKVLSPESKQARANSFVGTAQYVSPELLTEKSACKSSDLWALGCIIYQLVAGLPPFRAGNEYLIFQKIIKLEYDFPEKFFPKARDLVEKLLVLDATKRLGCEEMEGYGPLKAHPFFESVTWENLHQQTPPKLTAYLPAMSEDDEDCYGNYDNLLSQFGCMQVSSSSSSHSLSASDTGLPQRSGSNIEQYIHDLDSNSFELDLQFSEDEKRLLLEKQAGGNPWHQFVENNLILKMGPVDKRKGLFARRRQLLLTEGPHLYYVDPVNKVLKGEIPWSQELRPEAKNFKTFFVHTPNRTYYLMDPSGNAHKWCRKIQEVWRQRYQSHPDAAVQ

Structure (SMILES): O=C1NC(=O)c2c1c1c3ccccc3n3c1c1c2c2ccccc2n1C1CCC3O1
- inhibition [1]: 79%
- inhibition [2]: 73%
- inhibition [3]: 81%
- inhibition [4]: 81%
- inhibition [5]: 58%
- inhibition [6]: 10%
- inhibition [7]: 80%
- inhibition [8]: 82%
- inhibition [9]: 60%
- inhibition [10]: 77%
- inhibition [11]: 85%
- inhibition [12]: 59%
- inhibition [13]: 56%
- inhibition [14]: 78%
- inhibition [15]: 12%
- inhibition [16]: 65%
- inhibition [17]: 78%
- inhibition [18]: 71%
- inhibition [19]: 12%
- inhibition [20]: 87%
- inhibition [21]: 45%
- inhibition [22]: 45%
- inhibition [23]: 77%
- inhibition [24]: 28%
- inhibition [25]: 45%
- inhibition [26]: 37%
- inhibition [27]: 29%

From the kinase profiling compilation of Christmann-Franck et al. (2016)
